{"source": "patent US20220370471A1", "about": "“COMPOSITION AND METHOD FOR TREATMENT OF HIPPOCAMPAL SYNAPSE DYSFUNCTION AND COGNITIVE DEFICITS IN ALZHEIMER'S DISEASE” (BOARD OF REGENTS, THE UNIVERSITY OF TEXAS SYSTEM, priority 2019, published 2022)", "key": {"[1]": {"tested_on": "hippocampal CA3-CA1 pathway", "experiment": "Long-term potentiation (fEPSP) in hippocampal slices", "settings": "MK0677 1.5 μM, SKF81297 2 μM, alone or in combination", "quoted_text": "For electrophysiological experiments, mice were anesthetized with isoflurane and decapitated. […] Slices were allowed to rest for 30 minutes after being transferred to the recording chamber before recordings began. Recordings of local field potentials (LFPs) were performed on an Axon Multiclamp 700B amplifier (Molecular Devices), and data were acquired and analyzed using AxoGraph X (AxoGraph Scientific). A tungsten concentric bipolar microelectrode (World Precision Instruments), and a recording glass electrode (1.5 MS2) filled with recording ACSF, were placed approximately 200 μm apart in the Schaffer collateral-commissural pathway in the CA1 region of the hippocampus. Pulses were delivered in 30 seconds intervals. Before baseline recordings commenced, input-output curves were taken, using 25-150 μA stimulation currents in 25 μA steps. Three sweeps were sampled at each stimulation intensity and averaged to represent the voltage response at each step. Recordings of baseline responses lasted for at least 40 minutes. Stimulation intensity was set to approximately 40% of the minimum intensity required to evoke the maximum response (based on the input-output curve). The stimulation intensity was kept consistent throughout the duration of the experiment. […] LTP was induced using a theta burst stimulation (TBS) protocol consisting of 10 bursts (5 pulses at 100 Hz) repeated at 5 Hz delivered two times 30 seconds apart. After LTP induction, LFPs were recorded for an additional 60 minutes. The slope of the field excitatory postsynaptic potential (fEPSP) was measured in Axograph scientific software and sweeps were averaged in bins of 5 for both the baseline and post LTP induction periods. Changes in LFPs are expressed as percentage change from the averaged baseline values."}, "5×FAD mice [2]": {"tested_on": "5×FAD mice", "experiment": "Morris water maze test", "settings": "MK0677 1.5 mg/kg, daily i.p., one month", "quoted_text": "Mice and agonist treatment. […] Mice were used in pairs of age-matched non-transgenic mice (non-TG). Genotypes of animals were confirmed using PCR and/or amyloid plaque staining. The number of mice used was determined by previous data and calculations to ensure that the minimal number of mice as required was used in these experiments. […] Mouse body weight was recorded every five days until euthanasia. After the 1-month treatment, the mice were subjected to the Morris water maze behavioral test and then euthanized for tissue collection following IACUC-approved procedures.\nMouse behavioral test. The Morris water maze test was performed as previously described in order to test changes in mouse spatial learning and memory [3, 50]. Mice were randomly grouped by gender, genotypes and treatments (which the experimenter was blind to) and then transferred to the testing environment at least 0.5 hours before tests. During the test, mice were trained to find a hidden platform (20 cm diameter) in an open swimming pool (200 cm diameter) filled with 21° C. water (non-toxic white dye was used to hide the platform). Four trials were performed each day for 12 days. Each trial started at a different position (NW, N, E, SE) while the platform was kept in the same location (SW). […] Probe results were analyzed using the platform location crossed frequency value."}, "patients with AD": {"tested_on": "patients with AD", "settings": "clinical trial; cited from earlier work"}, "hippocampal neurons": {"tested_on": "hippocampal neurons", "experiment": "Synaptic density (vGLUT1/PSD95) in cultured hippocampal neurons", "assay_type": "cell-based, mouse", "description": "(§1) Immunocytochemistry. […] NIS element software was used for image analysis. “Objective Count” dialog was used for intensity measurement. […] The overlapped dots represent synapses.\nPrimary hippocampal neuron culture. Hippocampal neuron cultures were prepared as previously described (15). In brief, mouse hippocampi were dissected from postnatal day 0-1 pups in cold HBSS. Cells were dissociated by using 0.025% trypsin at 37° C. for 15 minutes, followed by 10 times homogenization in ice cold DMEM. Dissociated cells were then passed through a 100 μm cell strainer (Corning) and centrifuged for 5 minutes at 210×g. The pellet was gently resuspended in neuron culture medium (Neurobasal A with 2% B27 supplement, 0.5 mM L-glutamine, Invitrogen) and plated on poly-D-lysine (Sigma-Aldrich) coated Lab-Tek chamber slides (Nunc, 177445) with appropriate densities.\nAgonist treatment on primary cultured neurons. At 14 days in vitro (DIV14) hippocampal neurons were exposed to the synthetic growth hormone secretagogue receptor agonist MK0677 (Tocris, #5272, 1.5 μM) the dopamine D1-like receptor agonist SKF81297 (Sigma-Aldrich, #S143, 2 μM) or a mixture of MK0677 and SKF81297 for 5 minutes. The exposure was followed by immunostaining to examine the effects of Ghsr1α/Drd1 co-activation on Aβ induced synaptic loss or Ghsr1α/Drd1, Aβ/Ghsr1α interaction as described in previous sections."}, "5×FAD mice [3]": {"tested_on": "5×FAD mice", "experiment": "Synaptic density in hippocampal CA1 region of treated mice", "assay_type": "in vivo, mouse", "settings": "MK0677 1.5 mg/kg, daily i.p., one month", "description": "as §1\nSynaptic density analysis. For synaptic density analysis, vesicular glutamate transporter 1(vGlutl)- and postsynaptic density 95 (PSD95)-stained channels were saved as two binary layers, the threshold for each channel defined separately and then applied to all the images. The overlapping areas were analyzed by using the “AND” operation in the “Binary Operation” dialogs of NIS element software. Hippocampal volume was measured as described in the previous section (amyloid plaque deposition analysis). The overlapping dots represent synapses and average synapse number per selected area volume was calculated to represent synaptic density."}, "Ghsr1α": {"molecular_target": "Ghsr1α (Homo sapiens, UniProt Q92847)", "sequence (Q92847 whole entry)": "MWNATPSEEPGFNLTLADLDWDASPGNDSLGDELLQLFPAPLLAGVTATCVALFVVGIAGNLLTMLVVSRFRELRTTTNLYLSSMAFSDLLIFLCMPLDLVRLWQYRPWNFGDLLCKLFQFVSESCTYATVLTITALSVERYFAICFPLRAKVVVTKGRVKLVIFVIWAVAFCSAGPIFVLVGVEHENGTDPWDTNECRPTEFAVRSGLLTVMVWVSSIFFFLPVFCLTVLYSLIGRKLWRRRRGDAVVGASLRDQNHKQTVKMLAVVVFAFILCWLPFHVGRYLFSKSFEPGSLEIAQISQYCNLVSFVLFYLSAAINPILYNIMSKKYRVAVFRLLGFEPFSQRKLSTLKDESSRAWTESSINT", "settings": "cited from earlier work"}, "Ghsr1α/Drd1 complex": {"molecular_target": "T1, Ghsr1α/Drd1 complex (Mus musculus, UniProt Q61616+Q99P50)", "T1 construct": "endogenous in cells; host or cells: primary mouse hippocampal neurons (P0-1, DIV14)", "T1 sequence (Q99P50 whole entry)": "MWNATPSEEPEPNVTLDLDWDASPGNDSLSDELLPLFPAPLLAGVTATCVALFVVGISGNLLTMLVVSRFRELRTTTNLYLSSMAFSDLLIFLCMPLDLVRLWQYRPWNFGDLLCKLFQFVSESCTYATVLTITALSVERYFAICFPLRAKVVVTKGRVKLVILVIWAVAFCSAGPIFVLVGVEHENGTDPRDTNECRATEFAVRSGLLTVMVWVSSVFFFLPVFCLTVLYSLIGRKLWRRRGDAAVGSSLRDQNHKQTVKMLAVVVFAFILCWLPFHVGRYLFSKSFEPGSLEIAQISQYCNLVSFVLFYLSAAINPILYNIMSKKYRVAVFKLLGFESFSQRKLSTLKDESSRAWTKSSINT", "T1 sequence (Q61616 whole entry)": "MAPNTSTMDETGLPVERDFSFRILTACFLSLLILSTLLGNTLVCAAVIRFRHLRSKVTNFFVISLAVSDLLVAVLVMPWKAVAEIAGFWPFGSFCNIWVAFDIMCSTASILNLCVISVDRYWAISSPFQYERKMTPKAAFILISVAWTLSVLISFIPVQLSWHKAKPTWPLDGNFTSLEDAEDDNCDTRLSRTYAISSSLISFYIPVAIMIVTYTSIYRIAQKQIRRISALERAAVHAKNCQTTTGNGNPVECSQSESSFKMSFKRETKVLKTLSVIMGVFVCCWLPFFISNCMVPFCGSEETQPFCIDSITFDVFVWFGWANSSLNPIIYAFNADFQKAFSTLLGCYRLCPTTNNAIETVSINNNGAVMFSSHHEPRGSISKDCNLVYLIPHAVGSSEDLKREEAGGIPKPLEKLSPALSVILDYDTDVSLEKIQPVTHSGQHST", "experiment": "Duolink PLA of Ghsr1α/Drd1 complex in cultured hippocampal neurons", "assay_type": "cell-based", "settings": "oligomeric Aβ42 1 μM, 24 hours; 1.5 μM MK0677, 2 μM SKF81297, or in combination", "text": "Duolink In Situ Proximity Ligation Assay (PLA). […] PLA analysis was referred to previous report (66 67). NIH Image J was used for PLA signal quantification.\nAgonist treatment on primary cultured neurons. […] The exposure was followed by immunostaining to examine the effects of Ghsr1α/Drd1 co-activation on Aβ induced synaptic loss or Ghsr1α/Drd1, Aβ/Ghsr1α interaction as described in previous sections."}, "[4]": {"experiment": "Mouse body weight during treatment", "assay_type": "in vivo", "settings": "MK0677 1.5 mg/kg, daily i.p.", "text": "Agonist treatment on mice.\nMice and agonist treatment."}, "5×FAD mice [5]": {"tested_on": "5×FAD mice", "settings": "recent study, higher dose of MK0677; cited from earlier work"}, "5×FAD mice [6]": {"tested_on": "5×FAD mice", "experiment": "Microglia density, morphology and plaque-associated microglia analysis", "assay_type": "in vivo, mouse", "description": "Immunocytochemistry. Frozen sections were prepared as previously described. […] Nuclei were labeled with 4′,6-diamidino-2-phenylindole (DAPI, Thermo Fisher Scientific, #R37606, 1 drop/500 ul) as needed. Images were collected on a Nikon confocal microscope. Microglia morphology and plaque-associated microglia density analysis. Analysis of microglia morphology was done by producing three-dimensional (3D) reconstructions of cells using Imaris software (Bitplane, Imaris×64 9.0.2)[49]. Using the Filament algorithm, the software was able to calculate the length of each cell dendrite and number of branch points. This was done by first selecting the appropriate region of interest for the desired cell. If there were nearby cells, the somas of those cells were included in the region of interest. Since the software builds the dendrites based on extension from the largest set diameter, doing this can prevent unwanted filaments bridging the dendrites of two or more cells. The dendrite diameter parameters were set with the largest diameter being the soma size and the smallest diameter at 0.5 μm. To further prevent unwanted connections, the option to ‘Remove disconnected segments’ was used in the dendrite building menu with the distance threshold set at 5 μm. After the algorithm finished detecting the dendrites, non-specifically detected filaments were manually trimmed. Dendrite length and branch points were then calculated by the software. Plaque-associated microglia density was analyzed by using NIS element software. Microglia were counted under the following rule: if more than 50% of the microglia soma was within a plaque, it was counted as one plaque-associated microglia. Plaque volume was analyzed as described in the previous section (amyloid plaque deposition analysis)."}, "5×FAD mice [7]": {"tested_on": "5×FAD mice", "experiment": "Amyloid plaque deposition analysis (hippocampus and cortex)", "assay_type": "in vivo, mouse", "description": "Immunocytochemistry. Frozen sections were prepared as previously described. […] Nuclei were labeled with 4′,6-diamidino-2-phenylindole (DAPI, Thermo Fisher Scientific, #R37606, 1 drop/500 ul) as needed. Images were collected on a Nikon confocal microscope. Amyloid plaque deposition analysis. For amyloid plaque deposition analysis, amyloid plaque channel was subjected to “Binary” then “Define Threshold” in NIS element software. The threshold was set to include all the positive staining and the same setting was applied to all images. Volume measurement was then performed for all the plaques as well as each single plaque in both the hippocampal and cortical areas using the ROI selection option. Amyloid plaque-occupied percentage in the hippocampus or cortex and the average individual plaque volume was used to compare amyloid plaque deposition between 5×FAD saline and MK0677 treatment groups."}, "[8]": {"settings": "MK0677 1.5 mg/kg, daily i.p., one month"}, "[9]": {"settings": "saline- vs MK0677-treated 5×FAD mice"}}}
{"smiles": "CC(C)(N)C(=O)N[C@H](COCc1ccccc1)C(=O)N1CCC2(CC1)CN(S(C)(=O)=O)c1ccccc12", "note": "[MK0677]", "values": [{"measurement": "stimulus-evoked hippocampal LTP in 5×FAD slices", "setting": "[1]; slices from 4 month-old 5×FAD mice", "result": "no effect"}, {"measurement": "hippocampal LTP in non-Tg slices", "setting": "[1]; slices from 4 month-old non-Tg mice", "result": "no effect"}, {"measurement": "spatial reference learning and memory (genotypic cognitive impairment)", "setting": "5×FAD mice [2]", "result": "failed to show any protective effect"}, {"measurement": "clinical benefits in patients with AD", "setting": "patients with AD", "result": "failed to show clinical benefits"}, {"measurement": "synaptic density / oligomeric Aβ42-induced synapse loss", "setting": "hippocampal neurons; oligomeric Aβ42 1 μM, 24 hours, 1.5 μM MK0677, 2 μM SKF81297, or in combination", "result": "did not mitigate"}, {"measurement": "synaptic density, agonist alone", "setting": "hippocampal neurons; without oligomeric Aβ42, MK0677 at doses greater than 1.5 μM, SKF81297 2 μM", "result": "substantially promoted synaptic formation"}, {"measurement": "synaptic density, non-TG saline vs MK0677", "setting": "5×FAD mice [3]", "result": "no significant difference"}, {"measurement": "synaptic loss in CA1 region, 5×FAD mice", "setting": "5×FAD mice [3]", "result": "not significantly attenuated"}, {"measurement": "potency relative to ghrelin", "setting": "Ghsr1α", "result": "higher potency than ghrelin"}, {"measurement": "Ghsr1α/Drd1 complex formation", "setting": "Ghsr1α/Drd1 complex", "result": "not the agonists alone"}, {"measurement": "mouse body weight", "setting": "[4]", "result": "did not affect mouse body weight"}, {"measurement": "neocortical Aβ plaques in young 5×FAD mice", "setting": "5×FAD mice [5]", "result": "lowered neocortical Aβ plaques"}, {"measurement": "increased microglial density in the hippocampus, 5×FAD mice", "setting": "5×FAD mice [6]; [8]", "result": "not prevented"}, {"measurement": "microglia density, non-TG saline vs MK0677", "setting": "5×FAD mice [6]; [8]", "result": "no significant difference"}, {"measurement": "density of plaque-associated microglia, neocortex", "setting": "5×FAD mice [6]; MK0677-treated 5×FAD mice", "result": "failed to show any influence"}, {"measurement": "density of total microglia, neocortex", "setting": "5×FAD mice [6]; MK0677-treated 5×FAD mice", "result": "failed to show any influence"}, {"measurement": "density of plaque-associated microglia, hippocampus", "setting": "5×FAD mice [6]; [9]", "result": "no significant difference"}, {"measurement": "microglia length of total process", "setting": "5×FAD mice [6]; [9]", "result": "no significant difference"}, {"measurement": "microglia number of branch points", "setting": "5×FAD mice [6]; [9]", "result": "no significant difference"}, {"measurement": "size of each single Aβ plaque, hippocampus", "setting": "5×FAD mice [7]; 5×FAD mice, MK0677 1.5 mg/kg, daily i.p., 30 days", "result": "did not significantly alter"}, {"measurement": "single plaque size, neocortex", "setting": "5×FAD mice [7]; MK0677-treated 5×FAD mice", "result": "failed to show any influence"}, {"measurement": "total plaque-occupied volume, neocortex", "setting": "5×FAD mice [7]; MK0677-treated 5×FAD mice", "result": "failed to show any influence"}]}
